US6939989B2, “Side-chain halogenated amino dicarboxylic acid derivatives as medicaments for treating cardiovascular diseases” (Bayer Aktiengesellschaft, priority 2001, dated 2005)
pIC50: −log10 of the molar value.

Tests used:
[1] = tested on: porcine serum-induced rat liver fibrosis; test: Antifibrotic action in vivo, porcine serum-induced rat liver fibrosis; parameters: species or system Female Sprague Dawley rats; details: seven weeks
Description: The antifibrotic action of the substances was investigated using the model of the porcine serum-induced rat liver fibrosis. Treatment with heterologous serum, for example porcine serum in rats, is a method frequently used in the literature for inducing fibrosis of the liver with subsequent cirrhosis which, in contrast to other models, causes only minimal damage and inflammation of the parenchyma cells of the liver (Bhunchet, E. and Wake, K. (1992): Role of mesenchymal cell populations in porcine serum-induced rat liver fibrosis. Hepatology 16: 1452-1473). […] After seven weeks of treatment, the animals were killed and the livers were removed in order to quantify the collagen content. […]
Fast Green was used as counterstain to enhance contrasts. In each section, the extent of liver fibrosis was determined as a percentage of the area stained by Pikrosirius Red of the total area measured. […] 64 fields of a standardized grid of 31 mm^2 were measured using a final amplification of 100. […]
To determine OH-proline according to Prockop and Udenfried (Prockop, D. J. and Udenfried, S. A. (1960): A specific method for the analysis of hydroxyproline in tissues and urine. Anal. Biochem. 1: 228-239), in each case 50-100 mg of liver tissue were dried and boiled with 6N HCl for about 17 hours. […] After 3 hours of incubation at 35° C., absorption at 573 nm was measured. […]

arteria saphena rings = test: Vasorelaxant effect in vitro (phenylephrine-contracted arteria saphena rings); type: cell-based, Rabbits; details: Oryctolagus cuniculus; rabbit arteria saphena rings, phenylephrine contraction
Description: Rabbits are anesthetized or killed by intravenous injection of thiopental sodium (about 50 mg/kg) and exsanguinated. The arteria saphena is removed and divided into rings 3 mm wide. The individual rings are in each case mounted on a pair of hooks of triangular shape, open at the ends and made of special wire (Remanium®) having a diameter of 0.3 mm. Under pretension, each ring is introduced into a 5 ml organ bath containing carbogen-gassed Krebs-Henseleit solution at 37° C. with the following composition (mM): NaCl: 119; KCl: 4.8; CaCl2×2H2O: 1; MgSO4×7H2O: 1.4; KH2PO4: 1.2; NaHCO3: 25; glucose: 10; bovine serum albumin: 0.001%. The force of contraction is detected with Statham UC2 cells, amplified and digitized via A/D converters (DAS-1802 HC, Keithley Instruments, Munich) and recorded in parallel on chart recorders. Contractions are generated by adding phenylephrine.
After several (generally 4) control cycles, the substance to be investigated is added in each further run in increasing dosage, and the height of the contraction reached under the influence of the test substance is compared with the height of the contraction reached in the last preceding run. The concentration necessary to reduce the height of the control value by 50% (IC50) is calculated from this. The standard application volume is 5 μl. The DMSO content in the bath solution corresponds to 0. 1%.

O=C(O)CCCCN(CCc1ccccc1OCc1ccc(-c2ccc(C(F)(F)F)cc2)cc1Cl)Cc1ccc(C(=O)O)cc1 [Example 6]
Reduction of collagen deposits in the liver (OH-proline, morphometric fibrosis measurement) ([1]; 0.03 mg/kg p.o. o.d.): about a half | Reduction of collagen deposits in the liver (OH-proline, morphometric fibrosis measurement) ([1]; 0.1 mg/kg p.o. o.d.): about a half | pIC50 (arteria saphena rings): 9.77
